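Step 1: Grow cells in 96-well plates. Step 2: Expose to compound for 48 hours at 5 concentrations. Step 3: Interpolate endpoints linearly; if unreached, use highest concentration. GI50 = concentration required for 50% inhibition of growth.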 Activity calls are given as the source filed them. Rule as the data show it: active = GI50 up to about 1.1 µM and inactive = higher.
Tests used:
Experiment in all cases: DTP human tumour cell line panel, 48 h
[1] = test system: 786-0
[2] = test system: BT-549
[3] = test system: EKVX
[4] = test system: HCT-116
[5] = test system: HL-60
[6] = test system: HOP-92
[7] = test system: Hs-578T
[8] = test system: K562
[9] = test system: M14
[10] = test system: MDA-MB-435
[11] = test system: MDA-N
[12] = test system: MOLT-4
[13] = test system: Malme-3M
[14] = test system: OVCAR-3
[15] = test system: OVCAR-4
[16] = test system: PC-3
[17] = test system: SK-MEL-2
[18] = test system: U-251
[19] = test system: UO-31
[20] = test system: RPMI-8226

Row | Compound | GI50 [1] | GI50 [2] | GI50 [3] | GI50 [4] | GI50 [5] | GI50 [6] | GI50 [7] | GI50 [8] | GI50 [9] | GI50 [10] | GI50 [11] | GI50 [12] | GI50 [13] | GI50 [14] | GI50 [15] | GI50 [16] | GI50 [17] | GI50 [18] | GI50 [19] | GI50 [20]
1 | O=C(c1cccs1)N(Cc1cccnc1)C(=S)N(Cc1cccnc1)C(=O)c1cccs1 | 3.56 µM (inactive) | > 100 µM (inactive) | 44.1 µM (inactive) | 45.8 µM (inactive) | > 100 µM (inactive) | > 100 µM (inactive) | 53.2 µM (inactive) | 26.4 µM (inactive) | 91.2 µM (inactive) | > 100 µM (inactive) | 33.4 µM (inactive) | > 100 µM (inactive) | > 100 µM (inactive) | 53.7 µM (inactive) | > 100 µM (inactive) | 41.8 µM (inactive) | 26.2 µM (inactive) | 32.7 µM (inactive) | > 100 µM (inactive) | –
2 | CC(C)(C)c1cc(C(C)(C)C)c2sc(=O)oc2c1O | 16.4 µM (inactive) | 18.7 µM (inactive) | 15 µM (inactive) | 12.9 µM (inactive) | 5.6 µM (inactive) | 16.8 µM (inactive) | 16.4 µM (inactive) | 10.1 µM (inactive) | 17.5 µM (inactive) | 12.4 µM (inactive) | 13.5 µM (inactive) | 8.26 µM (inactive) | 16.5 µM (inactive) | 11.8 µM (inactive) | 13.6 µM (inactive) | 14.7 µM (inactive) | 15.5 µM (inactive) | 14.2 µM (inactive) | 11.6 µM (inactive) | 21.3 µM (inactive)
3 | CCN(CC)c1ccc(/C=C2\CCc3ccc([N+](=O)[O-])cc3C2=O)cc1 | 2.84 µM (inactive) | > 100 µM (inactive) | 5.27 µM (inactive) | 0.199 µM (active) | 0.249 µM (active) | > 100 µM (inactive) | 1.26 µM (inactive) | 0.0755 µM (active) | 3.54 µM (inactive) | 0.169 µM (active) | 0.17 µM (active) | 0.488 µM (active) | 2.52 µM (inactive) | 1.93 µM (inactive) | > 100 µM (inactive) | 1.97 µM (inactive) | – | 1.7 µM (inactive) | 7.46 µM (inactive) | 0.391 µM (active)
4 | Cc1cc(=O)oc2cc(OCc3c(F)cccc3Cl)ccc12 | 11.6 µM (inactive) | 28.2 µM (inactive) | – | 4.41 µM (inactive) | 3.76 µM (inactive) | 10.5 µM (inactive) | 21.9 µM (inactive) | – | 9.35 µM (inactive) | 1.78 µM (inactive) | 2.3 µM (inactive) | – | 0.728 µM (active) | > 100 µM (inactive) | 48.4 µM (inactive) | 3.56 µM (inactive) | 4.55 µM (inactive) | 8.85 µM (inactive) | > 100 µM (inactive) | –
5 | CCCc1nc(Cl)c(Cl)c(Cl)n1 | 19.9 µM (inactive) | 23.2 µM (inactive) | 21.4 µM (inactive) | 9.68 µM (inactive) | 15.4 µM (inactive) | 21 µM (inactive) | 14.6 µM (inactive) | 9.53 µM (inactive) | 25.4 µM (inactive) | 20.1 µM (inactive) | 33.8 µM (inactive) | 12.4 µM (inactive) | 10.7 µM (inactive) | 6.64 µM (inactive) | 16 µM (inactive) | 0.426 µM (active) | – | 14.7 µM (inactive) | 2.71 µM (inactive) | –
6 | COP(=O)(OC)[C@@](O)(c1ccccc1)[C@@H](O)[C@@H](O)c1ccccc1 | 64.6 µM (inactive) | > 100 µM (inactive) | > 100 µM (inactive) | 29.3 µM (inactive) | > 100 µM (inactive) | > 100 µM (inactive) | > 100 µM (inactive) | – | > 100 µM (inactive) | > 100 µM (inactive) | 85.3 µM (inactive) | – | > 100 µM (inactive) | > 100 µM (inactive) | > 100 µM (inactive) | > 100 µM (inactive) | > 100 µM (inactive) | 88.5 µM (inactive) | > 100 µM (inactive) | –
7 | C=CCC(CNC(=O)OCc1ccccc1)O[Si](C)(C)C(C)(C)C (stereo not drawn) | 29.4 µM (inactive) | 55 µM (inactive) | 25.4 µM (inactive) | 20.8 µM (inactive) | 20.1 µM (inactive) | 26.2 µM (inactive) | 45.2 µM (inactive) | 23.6 µM (inactive) | 26.4 µM (inactive) | 38.5 µM (inactive) | 34.8 µM (inactive) | 19.6 µM (inactive) | – | 31.6 µM (inactive) | 46.7 µM (inactive) | 30.3 µM (inactive) | 16.6 µM (inactive) | 25.6 µM (inactive) | 22.2 µM (inactive) | 20 µM (inactive)
8 | CC(C)=CCC[C@@H](C)C1=C(Nc2ccccc2Cl)C(=O)C(C)=C(O)C1=O | 1.81 µM (inactive) | 7.16 µM (inactive) | 3.12 µM (inactive) | 3.91 µM (inactive) | 0.612 µM (active) | 6.82 µM (inactive) | 3.42 µM (inactive) | 17.1 µM (inactive) | 6.15 µM (inactive) | 4.85 µM (inactive) | 4.5 µM (inactive) | 2.04 µM (inactive) | 4.29 µM (inactive) | 3.36 µM (inactive) | 5.53 µM (inactive) | 4.85 µM (inactive) | 3.66 µM (inactive) | 4.27 µM (inactive) | 2.89 µM (inactive) | 1.17 µM (inactive)
9 | Cc1c(N)nc(C(CC(N)=O)NCC(N)C(N)=O)nc1C(=O)NC(C(=O)NC(C)C(O)C(C)C(=O)NC(C(=O)NCCc1nc(-c2nc(C(=O)NCCCNC(C)c3ccccc3)cs2)cs1)C(C)O)C(OC1OC(CO)C(O)C(O)C1OC1OC(CO)C(O)C(OC(N)=O)C1O)c1c[nH]cn1 (stereo not drawn) | 0.419 µM (active) | 18.2 µM (inactive) | 47.1 µM (inactive) | 0.328 µM (active) | 7.59 µM (inactive) | 0.19 µM (active) | 0.0482 µM (active) | 10.1 µM (inactive) | 3.27 µM (inactive) | > 50 µM (inactive) | > 50 µM (inactive) | 1.83 µM (inactive) | 1.42 µM (inactive) | 8.05 µM (inactive) | 7.4 µM (inactive) | > 50 µM (inactive) | 16.8 µM (inactive) | 1.26 µM (inactive) | 0.283 µM (active) | 3.21 µM (inactive)
10 | CC1=NN(c2cc(Cl)c(S(=O)(=O)O)cc2Cl)C2(C1)C(Cl)C(=O)N2c1nc2ccccc2s1 (stereo not drawn) | > 100 µM (inactive) | > 100 µM (inactive) | 44.9 µM (inactive) | > 100 µM (inactive) | > 100 µM (inactive) | > 100 µM (inactive) | > 100 µM (inactive) | > 100 µM (inactive) | > 100 µM (inactive) | 84.3 µM (inactive) | > 100 µM (inactive) | 45.6 µM (inactive) | > 100 µM (inactive) | – | > 100 µM (inactive) | 27.8 µM (inactive) | > 100 µM (inactive) | > 100 µM (inactive) | 22.2 µM (inactive) | 79.3 µM (inactive)
11 | CCOC(=O)N1CCN(c2c(C)nc(C)nc2O)CC1 | > 100 µM (inactive) | > 100 µM (inactive) | > 100 µM (inactive) | > 100 µM (inactive) | > 100 µM (inactive) | > 100 µM (inactive) | > 100 µM (inactive) | > 100 µM (inactive) | > 100 µM (inactive) | > 100 µM (inactive) | > 100 µM (inactive) | > 100 µM (inactive) | > 100 µM (inactive) | > 100 µM (inactive) | > 100 µM (inactive) | > 100 µM (inactive) | – | > 100 µM (inactive) | > 100 µM (inactive) | > 100 µM (inactive)
12 | c1ccc(C(C2=Nc3cccc4cccc(c34)N2)c2ccccc2)cc1 | 26.2 µM (inactive) | 22 µM (inactive) | 30.3 µM (inactive) | > 10 µM (inactive) | 31.7 µM (inactive) | 18.7 µM (inactive) | 27 µM (inactive) | 19 µM (inactive) | 18.1 µM (inactive) | 25.5 µM (inactive) | 23.4 µM (inactive) | – | 27.8 µM (inactive) | 20.3 µM (inactive) | 53.5 µM (inactive) | 23 µM (inactive) | 20.9 µM (inactive) | 18 µM (inactive) | 17.8 µM (inactive) | 21.6 µM (inactive)
13 | O=C(/C=C/c1ccc(Cl)cc1)c1ccc(Cl)s1 | 32.9 µM (inactive) | 27 µM (inactive) | 68.9 µM (inactive) | 10.5 µM (inactive) | 24.3 µM (inactive) | 82.4 µM (inactive) | 40.5 µM (inactive) | 30.3 µM (inactive) | 44.1 µM (inactive) | > 10 µM (inactive) | 28.4 µM (inactive) | 27.7 µM (inactive) | > 100 µM (inactive) | 58.7 µM (inactive) | 69 µM (inactive) | 63 µM (inactive) | – | 32.6 µM (inactive) | 51.8 µM (inactive) | 17.8 µM (inactive)
14 | Cc1ccsc1/C(S)=N\c1ccc(Cl)c(/C=N/OC(C)(C)C)c1 | 20.9 µM (inactive) | 22.9 µM (inactive) | 24.6 µM (inactive) | 16.4 µM (inactive) | 24.2 µM (inactive) | 18 µM (inactive) | 29.7 µM (inactive) | – | 39 µM (inactive) | 53.3 µM (inactive) | 43.1 µM (inactive) | 12.3 µM (inactive) | 40.2 µM (inactive) | 83.2 µM (inactive) | > 100 µM (inactive) | 34.4 µM (inactive) | 41.8 µM (inactive) | 24.3 µM (inactive) | 20.6 µM (inactive) | 26.4 µM (inactive)

— ChEMBL document CHEMBL1201862, “PubChem BioAssay data set” (2004)
